{
  "source": "patent US20220403431A1",
  "about": "“GLYCOMINIMIZED BACTERIAL HOST CELLS” (INBIOSE N.V., priority 2020, published 2022)",
  "key": {"[1]": {"tested_on": "glycominimized (GM) E. coli strain", "assay": "Osmotic stress sensitivity assay, GM strain compared to WT strain", "format": "cell-based, Escherichia coli K-12 MG1655", "conditions": "minimal medium", "method": "Cells were cultured in Greiner Bio-One (Vilvoorde, Belgium) polystyrene F-bottom 96 well plates using the defined medium described above and inoculated 1% from precultures, which were grown in a carbon limiting 2.2 g/L glucose H2O defined medium variant. For the minimum inhibitory concentration (MIC) determination and osmotic stress sensitivity experiments, antibiotics resp. salts were supplemented to the medium in a 100 mL volumetric flask and subsequently filter sterilized using a […] Corning filter system. Each strain was grown in multiple wells of the 96-well plate as biological replicates. These final 96-well culture plates were then incubated at 30° C. on an orbital shaker at 800 rpm for 72h, or longer\nThe maximal growth rate (Max) was calculated based on the observed optical densities at 600 nm using the R package grofit.\nTo test the osmotic stress sensitivity of an E. coli strain, a concentration array of KCl, NaCl and sucrose was applied, and growth of the strain recorded. The growth rate was calculated and plotted in function of the concentration of each solute as well as of the osmotic pressure. The osmotic pressure π is calculated as π=i*C*R*T whereby i is the dimensionless Van't Hoff index, C the concentration of the solute (mol/L), R the ideal gas constant and T the temperature (K). For salts that dissociate in water, the Van't Hoff index is the sum of all ions originating from one molecule.\nSince the semi-permeable membrane of the GM strain is severely altered compared to that of the WT strain, the osmotic sensitivity of both strains was compared toward KCl, NaCl and sucrose."}, "[2]": {"tested_on": "glycominimized (GM) E. coli strain", "assay": "Growth rate and MIC in minimal medium with increasing antibiotic concentrations, GM strain compared to WT strain", "format": "cell-based, Escherichia coli K-12 MG1655", "experimental": "Cells were cultured in Greiner Bio-One (Vilvoorde, Belgium) polystyrene F-bottom 96 well plates using the defined medium described above and inoculated 1% from precultures, which were grown in a carbon limiting 2.2 g/L glucose H2O defined medium variant. For the minimum inhibitory concentration (MIC) determination and osmotic stress sensitivity experiments, antibiotics resp. salts were supplemented to the medium in a 100 mL volumetric flask and subsequently filter sterilized using a 0,22 m Corning filter system. Each strain was grown in multiple wells of the 96-well plate as biological replicates. These final 96-well culture plates were then incubated at 30° C. on an orbital shaker at 800 rpm for 72h, or longer\nCell density of the cultures was frequently monitored by measuring optical density at 600 nm (Implen Nanophotometer NP80, Westburg, Belgium) or with a Spark 1OM microplate reader (Tecan, Switzerland).\nThe minimum inhibitory concentration (MIC) was determined as the lowest concentration of an antibiotic where the growth rate was less or equal than 10% of the growth rate when no antibiotic was added.\nIn this experiment, the growth rate was measured for both the wildtype and the GM strain when grown in media containing increasing antibiotic concentrations."}, "[3]": {"conditions": "at 5 g/L concentrations of the salt solutes"}},
  "data": [
    {"smiles": "[Cl-].[Na+]", "note": "[NaCl]", "values": [
      {"measurement": "osmotic sensitivity of the GM strain compared to the WT strain (relative specific growth rate, FIG. 2)", "setting": "[1]; [3]", "result": "equally sensitive"}
    ]},
    {"smiles": "CC[C@H]1OC(=O)[C@H](C)[C@@H](O[C@H]2C[C@@](C)(OC)[C@@H](O)[C@H](C)O2)[C@H](C)[C@@H](O[C@@H]2O[C@H](C)C[C@H](N(C)C)[C@H]2O)[C@](C)(O)C[C@@H](C)C(=O)[C@H](C)[C@@H](O)[C@]1(C)O", "note": "[erythromycin]", "values": [
      {"measurement": "minimum inhibitory concentration (MIC), GM strain vs WT strain", "setting": "[2]; MIC = lowest concentration where growth rate is less or equal than 10% of growth rate without antibiotic, both strains compared", "result": "similar"},
      {"measurement": "sensitivity of the GM strain to the antibiotic compared to the WT strain (relative specific growth rate, FIG. 1)", "setting": "[2]; minimal medium, increasing antibiotic concentrations, GM vs WT strain", "result": "similarly sensitive"}
    ]},
    {"smiles": "OC[C@H]1O[C@@](CO)(O[C@H]2O[C@H](CO)[C@@H](O)[C@H](O)[C@H]2O)[C@@H](O)[C@@H]1O", "note": "[sucrose]", "values": [
      {"measurement": "osmotic sensitivity of the GM strain compared to the WT strain (relative specific growth rate, FIG. 2)", "setting": "[1]; up till 64 g/L sucrose", "result": "equally sensitive"}
    ]},
    {"smiles": "[Cl-].[K+]", "note": "[KCl]", "values": [
      {"measurement": "osmotic sensitivity of the GM strain compared to the WT strain (relative specific growth rate, FIG. 2)", "setting": "[1]; [3]", "result": "equally sensitive"}
    ]}
  ]
}
